# Where no end group is shown, it is not given here.
# How the values were obtained:
# IFN-gamma = assay: Ovalbumin-induced IFN-gamma production by splenocytes from ovalbumin-sensitized mice (ELISA); type: cell-based, BALB/c mice; conditions: ovalbumin 100 μg/mL + 100 μM peptide added daily, four days; ovalbumin alone 567.9 ± 93.1
# Protocol: (§1) Splenocytes from ovalbumin-sensitized mice were cultured for four days with no antigen, with ovalbumin alone, or with ovalbumin plus the STAT-6-IP or a STAT-6 Tyr-641 mutant (STAT-6-CP; Tyr-Ala-Arg-Ala-Ala-Ala-Arg-Gln-Ala-Arg-Ala-Gly-Arg-Gly-Phe-Val-Ser-Thr-Thr; SEQ ID NO:8). The STAT-6-IP and STAT-6-CP were added to splenocyte cultures daily. Treatment with the STAT-6-IP, but not the STAT-6-CP, reduced the supernatant levels of both IL-4 and IL-13 (Table 3).
# (§2) BALB/c mice were sensitized systemically by two weekly i.p. injections of 0.025% ovalbumin mixed with 4 mg/mL Al(OH)3. One week after the second sensitization, mice were sacrificed and spleens harvested. A single cell suspension of splenocytes (5×10^6 cells/mL) was cultured in RPMI-1640 medium containing 10% heat-inactivated fetal bovine serum and 2 mM L-glutamine, 50 μM 2-mercaptoethanol, 100 U/mL penicillin, and 100 μg/mL streptomycin sulfate. Splenocytes were cultured for four days in the presence or absence of 100 μg/mL ovalbumin, either alone or with 100 μM STAT-6-IP or STAT-6-CP, which were added daily. After four days, culture supernatants were harvested to quantify cytokine production by ELISA. […] Cytokine expression was monitored by flow cytometry and analyzed using CELLQUEST™ software (Becton Dickinson). […]
# IL-4 = assay: Ovalbumin-induced IL-4 production by splenocytes from ovalbumin-sensitized mice (ELISA); type: cell-based, BALB/c mice; conditions: ovalbumin 100 μg/mL + 100 μM peptide added daily, four days; ovalbumin alone 309.3 ± 49.6
# Protocol: as §1, §2
# [1] = test system: ovalbumin-sensitized mice; assay: Airway hyperresponsiveness to methacholine (respiratory system resistance, FlexiVent); type: in vivo, BALB/c mice
# Protocol: Six-to-eight week-old male BALB/c mice were obtained from Harlan-Sprague Dawley (Indianapolis, Ind.) and were housed in a conventional animal facility. For each experimental condition, a minimum of 6-8 animals was used. Awake animals were sensitized five days per week for each of two weeks by instillation in each nostril of 5 μL 1% ovalbumin in PBS. Alternatively, animals were sensitized by two weekly systemic, i.p. injections of 0.025% ovalbumin mixed with 4 mg/mL Al(OH)3. Following two weeks rest, animals were challenged for five days by intranasal instillation of 1% ovalbumin. Animals treated with peptides received the STAT-6-IP (15, 50, or 150 μg) or STAT-6-CP (50 or 150 μg) in 10 μL PBS 30 minutes prior to each ovalbumin challenge. Twenty-four hours after the last ovalbumin challenge, mice were deeply anaesthetized with xylazine and sodium pentobarbital and paralyzed with pancuronium bromide. The tail vein was cannulated for drug administration and heart rate was monitored by EKG. The trachea was exposed, a cannula inserted and secured with silk ties and then attached to a computer-controlled small-animal ventilator (FlexiVent; SCIREQ, Montreal, Quebec). Mice were ventilated quasi-sinusoidally with a tidal volume of 8 mL/kg and respiratory rate of 150 breaths/minute. Respiratory system resistance was measured. Airway hyperresponsiveness was by low dose methacholine. Methacholine was injected through the tail vein at dose of 10, 20, 40, 80, 160, 320 μg/kg and the maximal resistance and elastance were recorded. Afterward, the trachea was isolated and a 22-gauge stainless steel catheter was inserted into the proximal trachea and secured with 4-0 silk suture. The lungs were lavaged using 0.5 mL of ice cold 0.9% NaCl. The bronchoalveolar lavage (BAL) fluid was centrifuged to remove intact cells and the supernatant stored at −20° C. for IL-13 analysis by ELISA. […] Six fields were counted, each encompassing 100 cells per slide, and means obtained.
# [2] = test system: ovalbumin-sensitized mice; assay: Allergen-induced accumulation of granulocytes in bronchoalveolar lavage (BAL) fluid; type: in vivo, BALB/c mice
# Text: In the combined allergic rhinitis and asthma model, non-anaesthetized mice are locally sensitized with ovalbumin intranasally (i.n.), the primary route of allergen exposure in man (McCusker, et al. (2002) supra). Normal saline was used as a control. In both models sensitized mice produce ovalbumin-specific IgE and upon i.n. ovalbumin challenge, develop inflammation and eosinophilia in both the upper and lower airways as well as IL-13-dependent airway hyperresponsiveness (McCusker, et al. (2002) supra; Wang and McCusker (2005) Clin. Exp. Allergy 35(8):1104-11). Thus, in each model of allergic airway disease, the STAT-6-IP or control STAT-6-CP was given locally, i.n., to non-anaesthetized, ovalbumin-sensitized mice prior to each of five daily allergen challenges. Consistent with its ability to inhibit STAT-6-dependent activity in vitro, the STAT-6-IP inhibited allergen-induced accumulation of granulocytes in the lung, quantified in bronchoalveolar lavage (BAL) fluid, independent of the site of sensitization (Table 5).
# Six-to-eight week-old male BALB/c mice were obtained from Harlan-Sprague Dawley (Indianapolis, Ind.) and were housed in a conventional animal facility. For each experimental condition, a minimum of 6-8 animals was used. Awake animals were sensitized five days per week for each of two weeks by instillation in each nostril of 5 μL 1% ovalbumin in PBS. Alternatively, animals were sensitized by two weekly systemic, i.p. injections of 0.025% ovalbumin mixed with 4 mg/mL Al(OH)3. Following two weeks rest, animals were challenged for five days by intranasal instillation of 1% ovalbumin. […] The tail vein was cannulated for drug administration and heart rate was monitored by EKG. […] Respiratory system resistance was measured. […] Methacholine was injected through the tail vein at dose of 10, 20, 40, 80, 160, 320 μg/kg and the maximal resistance and elastance were recorded. […] Six fields were counted, each encompassing 100 cells per slide, and means obtained.
# IL-13 = IL-13 in the BAL fluid (ELISA); type: in vivo, BALB/c mice; conditions: 150 μg peptide prior to each ovalbumin challenge; ovalbumin control 84.95, normal saline 55.67
# Protocol: Six-to-eight week-old male BALB/c mice were obtained from Harlan-Sprague Dawley (Indianapolis, Ind.) and were housed in a conventional animal facility. For each experimental condition, a minimum of 6-8 animals was used. Awake animals were sensitized five days per week for each of two weeks by instillation in each nostril of 5 μL 1% ovalbumin in PBS. Alternatively, animals were sensitized by two weekly systemic, i.p. injections of 0.025% ovalbumin mixed with 4 mg/mL Al(OH)3. Following two weeks rest, animals were challenged for five days by intranasal instillation of 1% ovalbumin. Animals treated with peptides received the STAT-6-IP (15, 50, or 150 μg) or STAT-6-CP (50 or 150 μg) in 10 μL PBS 30 minutes prior to each ovalbumin challenge. Twenty-four hours after the last ovalbumin challenge, mice were deeply anaesthetized with xylazine and sodium pentobarbital and paralyzed with pancuronium bromide. The tail vein was cannulated for drug administration and heart rate was monitored by EKG. […] Respiratory system resistance was measured. […] Methacholine was injected through the tail vein at dose of 10, 20, 40, 80, 160, 320 μg/kg and the maximal resistance and elastance were recorded. […] Six fields were counted, each encompassing 100 cells per slide, and means obtained.
sequence,measurement,setting,value
"YARAAARQARAGRGFVSTT [STAT-6-CP, STAT-6 Tyr-641 mutant, control peptide]","IFN-gamma (pg/mL ± SEM), culture supernatant",IFN-gamma,513.6 ± 118.3 pg/mL
same,"IL-4 (pg/mL ± SEM), culture supernatant",IL-4,212.9 ± 4.1 pg/mL
same,Response Rmax (cm H2O × s/mL ± SEM),"[1]; dose response, 150 μg peptide, ovalbumin control 2.02, normal saline 1.41",2.53 (±0.31) cm H2O × s/mL
same,Response Rmax (cm H2O × s/mL ± SEM),"[1]; i.n. ovalbumin sensitization, 50 microgram peptide, ovalbumin control 1.92, normal saline 1.19",1.80 ± 0.07 cm H2O × s/mL
same,Response Rmax (cm H2O × s/mL ± SEM),"[1]; i.p. ovalbumin sensitization, 50 microgram peptide, ovalbumin control 1.87, normal saline 1.19",1.85 ± 0.06 cm H2O × s/mL
same,Granulocytes/100 counted from BAL (±SEM),"[2]; dose response, 150 μg peptide, ovalbumin control 22.33, normal saline 5.00",21.42 ± 1.56 Granulocytes/100 counted
same,Granulocytes/100 counted from BAL (±SEM),"[2]; i.n. ovalbumin sensitization, 50 microgram peptide i.n. prior to each ovalbumin challenge, ovalbumin control 26.73",22.27 (±0.60) Granulocytes/100 counted
same,Granulocytes/100 counted from BAL (±SEM),"[2]; i.p. ovalbumin sensitization, 50 microgram peptide i.n. prior to each ovalbumin challenge, ovalbumin control 37.57",34.75 (±0.68) Granulocytes/100 counted
same,"IL-13, pg/mL (±SEM), BAL fluid",IL-13,75.75 (±5.60) pg/mL

# — US7829528B2, “Compositions and methods for treating STAT-6 associated diseases or conditions” (The Rockefeller University, priority 2004, dated 2010)
